{
  "source": "paper PMC11642044",
  "about": "(International Journal of Molecular Sciences, 2024)",
  "type_in_all_cases": "cell-based, human",
  "key": {"JNK": {"test_system": "JNK", "assay": "Stimulatory phosphorylation of JNK (Western blot), U87-MG", "settings": "5 μM HOE-140, 1 µM bradykinin, 10 min", "experimental": "(§1) The resulting Ca^2+ signal profiles were monitored by FLIPR for 3 min.\n(§2) SDS-PAGE and Western blotting were performed as described in our previous studies. In brief, cells in 6-well plates (5 × 10^5 cells/well) were lysed in 500 μL of ice-cold lysis buffer (50 mM Tris-HCl at pH 7.5 containing 100 mM NaCl, 5 mM EDTA, 40 mM NaP2O7, 1% Triton X-100, 1 mM dithiothreitol, 200 μM Na3VO4, 100 μM phenylmethylsulfonyl fluoride, 2 μg/mL leupeptin, 4 μg/mL aprotinin, and 0.7 μg/mL pepstatin) and then gently shaken for 30 min. The amount of protein in each sample was determined by detergent compatible (DC) protein assay according to the supplier’s instruction (Bio-Rad, Hercules, CA, USA). Clarified lysates (30 μg protein per sample) were resolved on 12% SDS-polyacrylamide gels and then transferred to nitrocellulose membranes (Westborough, MA, USA). Resolved proteins were detected by specific primary antibodies and horseradish peroxidase-conjugated secondary antisera. The level of β-actin was determined as an internal control. […] Chemiluminescence signals were then detected by ChemiDoc imaging systems (Bio-Rad, Hercules, CA, USA) with the subsequent band densities quantified by ImageJ (https://imagej.net/ij/) analysis software (National Institutes of Health, MD, USA). […]\n(§3) Chemiluminescence signals were then detected by the ChemiDoc Imaging Systems (Bio-Rad, […]"}, "p38 in U87-MG cells": {"test_system": "p38 in U87-MG cells", "assay": "p38 phosphorylation in U87-MG by SK-N-MC-derived conditioned media (CM-SK)", "settings": "HOE-140 5 μM, 15 min pre-treatment", "experimental": "(§4) These conditioned media were either immediately applied to SK-N-SH/SK-N-MC cells (80–100% confluence) in 6-well plates for 15 min, or subjected to heat treatment on a 96 °C heat block for 5 min, and then cooled to 37 °C before they were applied to the SK-N-SH/SK-N-MC cells for 15 min. […] For the SK-N-MC-derived conditioned media, SK-N-MC cells (80–100% confluence) in a 10 cm culture dish were serum-starved in 10 mL of MEM (without FBS), with 1 mL of the resulting conditioned medium being collected at indicated time points (15 min, 1 h, 3 h, 6 h). Simultaneously, U87-MG cells (80–100% confluence) in 12-well plates were serum-starved in MEM for 6 h, followed by pretreatment of […] (5 μM, 15 min), and then challenged with the SK-N-MC-derived conditioned media (mentioned above) for 10 min before cell lysis. […]\n(§5) SDS-PAGE and Western blotting were performed as described in our previous studies. […] The amount of protein in each sample was determined by detergent compatible (DC) protein assay according to the supplier’s instruction (Bio-Rad, Hercules, CA, USA). […] Resolved proteins were detected by specific primary antibodies and horseradish peroxidase-conjugated secondary antisera. The level of β-actin was determined as an internal control."}, "ERK in U87-MG cells": {"test_system": "ERK in U87-MG cells", "assay": "ERK phosphorylation in U87-MG by SK-N-MC-derived conditioned media (CM-SK)", "settings": "HOE-140 5 μM, 15 min pre-treatment", "experimental": "as §4, §5"}, "p38 MAPK": {"test_system": "p38 MAPK", "assay": "Stimulatory phosphorylation of p38 MAPK (Western blot), U87-MG", "settings": "5 μM HOE-140, 1 µM bradykinin, 10 min", "experimental": "as §1, §2, §3"}, "[1]": {"test_system": "B2R-mediated LIF secretion in U87-MG cells", "assay": "Inhibition of bradykinin-induced LIF production (ELISA), U87-MG", "settings": "5 μM HOE-140, 30 min pre-treatment, bradykinin 1 µM, 24 h", "experimental": "Conditioned media were analyzed for the presence of multiple cytokines by using the cytokine multiplex assay kits (Merck Millipore, MA, USA) as previously described. Briefly, a bead mixture with various capture antibodies (50 μL) was added to a 96-well microtiter plate, followed by 50 μL of cytokine standard mix or test sample and then 25 μL of a biotinylated detection antibody mixture. The mixtures were incubated for 30 min at 25 °C with gentle shaking. Unbound antibodies were removed by three gentle washes. Finally, 50 μL of streptavidin–PE solution was added and incubated for another 30 min with gentle shaking. The detection beads were then washed again and resuspended in 120 μL of reading buffer. The Bio-Plex™ 200 system (Bio-Rad Laboratories, Hercules, CA, USA) with the Bio-Plex manager software (version 5.0) was utilized for signal detection and data analysis. Curve fitting was applied to each standard curve according to the manufacturer’s manual and sample concentrations were interpolated from the standard curves. Individual detections for LIF and IL-6 were performed using the corresponding ELISA kits from Abcam (Cambridge, UK) according to the manufacturer’s instructions.\nas §1"}, "ERK": {"test_system": "ERK", "assay": "Stimulatory phosphorylation of ERK (Western blot), U87-MG", "settings": "5 μM HOE-140, 1 µM bradykinin, 10 min", "experimental": "as §1, §2, §3"}, "JNK in U87-MG cells": {"test_system": "JNK in U87-MG cells", "assay": "JNK phosphorylation in U87-MG by SK-N-MC-derived conditioned media (CM-SK)", "settings": "HOE-140 5 μM, 15 min pre-treatment", "experimental": "as §4, §5"}},
  "data": [
    {"substance": "HOE-140", "values": [
      {"measurement": "inhibition of bradykinin-induced JNK activation", "setting": "JNK", "value": "completely abolished"},
      {"measurement": "inhibition of CM-SK-stimulated p38 phosphorylation", "setting": "p38 in U87-MG cells", "value": "significantly inhibited"},
      {"measurement": "inhibition of CM-SK-stimulated ERK phosphorylation", "setting": "ERK in U87-MG cells", "value": "significantly inhibited"},
      {"measurement": "inhibition of bradykinin-induced p38 MAPK activation", "setting": "p38 MAPK", "value": "completely abolished"},
      {"measurement": "inhibition of bradykinin-induced LIF production", "setting": "[1]", "value": "blocked the ability of bradykinin to stimulate LIF production"},
      {"measurement": "inhibition of bradykinin-induced ERK activation", "setting": "ERK", "value": "completely abolished"},
      {"measurement": "inhibition of CM-SK-stimulated JNK phosphorylation", "setting": "JNK in U87-MG cells", "value": "significantly inhibited"}
    ]}
  ]
}
